Measurements reported in US12029738B2, “Antiproliferative compounds and methods of use thereof” (Celgene Corporation, priority 2017, dated 2024).
Read-outs that look alike come from different tables or passages of the source. One block for each molecule: values may come before it.

Assays:
dopamine D2S receptor = molecular target: T1, dopamine D2S receptor (Homo sapiens, UniProt P14416); assay: Dopamine D2S receptor radioligand binding (HEK-293); settings: 10 μM
T1 construct: host or cells: HEK-293 cells (membrane homogenates)
Method: (§1) α1 Adrenergic and Dopamine D2 Receptors. Methods: Binding and functional assays for α1 adrenergic and dopamine D2 receptors were performed by Eurofins Cerep according to their methods.
Dopamine D2 Receptor. Binding at 10 μM. The binding assay evaluated the affinity of test articles for the dopamine D2 receptor in transfected human embryonic kidney (HEK)-293 cells. For determining the binding in the D2S receptor assay, test article was incubated with 0.3 nM [^3H] methylspiperone or 1 nM [^3H] 7-hydroxy-2-N,N-dipropylaminotetralin (7-OH-DPAT). [3H] Methylspiperone at 0.3 nM also was used as control ligand in the D2L binding assay. Cell membrane homogenates were incubated in duplicate at room temperature for 60 minutes with ligand in the absence or presence of test articles at 10 μM. After the incubation period, samples were filtered through glass fiber filters, the filters dried and then counted for radioactivity using a scintillation counter. Results are expressed as mean percent inhibition of control radioligand binding.
Binding IC50. To determine the binding IC50 in the D2 receptor assays, HEK-293 were tested as described above but with varying concentrations of test article. Compound A was tested at 0.01-30 μM in the D2S radioligand binding assay. […] Compound 1 was assayed at 0.03-100 μM in both the D2S and D2L assays, while Compound 2 was tested at 0.03-100 μM in the D2S assay and 0.01-100 μM in the D2L assays. The IC50 was defined as the concentration causing a half-maximum inhibition of control specific binding.

[1] = tested on: non-selective α1 adrenergic receptor; assay: α1 adrenergic receptor radioligand binding ([3H]prazosin); settings: 10 μM; rat cerebral cortex; 0.25 nM [3H]prazosin
Method: as §1
α1 Adrenergic Receptor. Binding at 10 μM. The binding assay evaluated the affinity of test article for the non-selective α1 adrenergic receptor in rat cerebral cortex. Membrane homogenates of cerebral cortex were incubated in duplicate for 60 minutes at room temperature with 0.25 nM [^3H]prazosin in the absence or presence of test articles at 10 μM. After the incubation period, samples were filtered through glass fiber filters, the filters dried and then counted for radioactivity using a scintillation counter. Results are expressed as mean percent inhibition of control radioligand binding.
Binding IC50. […] Compound A was tested at 0.01-30 μM. […] Compound 1 and Compound 2, the S-enantiomer of Compound 1, were assayed at 0.03-100 μM. Radioactivity was measured as described above. The IC50 was defined as the concentration causing a half-maximum inhibition of control specific binding.

[2] = tested on: MM cell lines H929-1051, KMS11, KMS-12PE, L363, OPM-P10, RPMI8226; assay: Combination with small molecule inhibitors, synergy (Cell Titer-Glo, 3 days); type: cell-based, human; settings: Highest Single Agent method, 6 MM cell lines
Method: The effect of combining treatment with Compound 2 and small molecule inhibitors with various mechanisms was evaluated in a panel of MM cell lines. Thirteen small molecule inhibitors were selected for combination studies with Compound 2 based on their preclinical and/or activity against MM. The cell lines H929-1051, KMS11, KMS-12PE, L363, OPM-P10, and RPMI8226 were selected for this study to represent the different genetic clustering groups across MM cell lines. […] Combination agents were dosed in a 6 point dose-response curve (DRC) at a 1:3 dilution, Compound 2 was dosed in a 10 point DRC, also at a 1:3 dilution. The combination experiments were run twice, each time with replicate data on separate plates. Compounds were pre-spotted into the appropriate wells of 384-well plates using an acoustic dispenser. All MM cell lines were cultured in an incubator at 37° C. with 5% CO2 using the indicated cell culture media containing 1× Penicillin-Streptomycin. Cells were added to the compound containing 384-well plates using a Multidrop Combi Reagent Dispenser and allowed to incubate for 3 days at 37° C. with 5% CO2. After 3 days, cells were assessed for their level of ATP content via Cell Titer-Glo measured on a luminescence detector (PerkinElmer Envision).
The Highest Single Agent (HAS) method was used to detect synergy in the dose response curve data. Combinations were analyzed from a response surface perspective. A statistical framework (Van Der Borght, K., et al., BIGL: Biochemically Intuitive Generalized Loewe null model for prediction of the expected combined effect compatible with partial agonism and antagonism; Scientific Reports, 7 (1), 17935-1-17935-9 (2017)) was incorporated into the analysis on top of the HAS null model with two statistical tests: 1) Complete response surface differs from null model, 2) Single well differs from null model.

K562 cells = assay: Coculture of compound-treated IL-2-activated PBMCs with K562 cells; type: cell-based, human; settings: Homo sapiens, K562; IL-2-activated PBMCs treated 72 h; 4 h coculture; read-out: IC50 of compound-treated PBMCs for direct K562 cell killing
Method: Coculture Experiments with Peripheral Blood Mononuclear Cells and K562 Cells. Methods: Human Peripheral Blood Mononuclear Cell (PBMC) Preparation: PBMCs isolated from healthy donors were cultured in RPMI 1640 medium with 10% FBS at a density of 1×10^6 cells/mL.
Cell Culture: K562 cells were kept in log phase, and cell density and viability were monitored by trypan blue exclusion using the Vi-CELL® XR cell viability analyzer (Beckman Coulter, Brea, CA).
Assay Procedures: Freshly isolated human PBMCs were cultured with recombinant IL-2 at concentration of 20 units/mL for 72 h. Peripheral blood mononuclear cells were then spun down and re-suspended in fresh RPMI complete medium to 2×10^6 cells/mL. Cells were then treated with DMSO or compounds at the indicated concentrations and incubated for an additional 72 h. The PBMCs were then washed twice in fresh RPMI complete medium prior to coculture. K562 cells were re-suspended to a cell density of 1×10^6/mL and stained with 1 μM CellTrace CFSE according to manufacturer's instructions. The labeled K562 cells were then seeded into a 96-well round bottom plate at 1×10^5 cells/well. Peripheral blood mononuclear cells were then transferred into the same 96-well plate at a 1:15 ratio, in triplicate and incubated at 37° C. for 4 h. Specific target cell lysis by PBMC cells was measured using Annexin V-fluorescein isothiocyanate (FITC) and propidium iodide (PI) according to manufacturer's instructions and samples were run on the FACS Array scan. Non-labeled K562 cells, CellTrace CFSE-labeled K562 cells, and Annexin V-FITC- and PI labeled untreated K562 cells were included in each assay as controls.

H929-1051 = assay: PBMC and MM cell treatment assay (single culture vs co-culture); type: cell-based, human; settings: Homo sapiens, PBMC, H929-1051, read-out: Immune-mediated Cell Killing IC50
Method: (§2) PBMC and MM Cell Treatment Assay Procedure. Ninety-six-well dishes were pre-coated with anti-CD3 antibody (OKT3, 3 μg/mL) and incubated at 4° C. overnight before the start of the experiment. Frozen PBMC donor cells were thawed at 37° C. for 2 minutes in RPMI medium with 10% FBS and cell counts and viability were measured on the Vi-CELL analyzer. Peripheral blood mononuclear cells were washed and diluted to 1×10^6 cells/mL and dispensed into the compound-treated plates in a total volume of 200 μL. Cells were incubated with compounds for 2 h before being transferred onto anti-CD3-coated plates and incubated for an additional 72 h. At the same time, MM cell lines (NCI-H929, H929-1051, OPM2, OPM2-P10) were diluted to a final concentration of 0.1×10^6 cells/mL and labeled with CellTrace CFSE according to manufacturer's instructions. Multiple myeloma cell lines were then dispensed into compound-treated plates at a total volume of 200 μL and incubated for 72 h. After 72 h, the PBMCs and MM cells were counted and transferred into a U-bottom 96-well plate at a final T:E ratio of 1:5. After 24 h coculture, specific target cell lysis by PBMC cells was measured using Annexin V-AF647 and 7-AAD according to manufacturer's instructions and samples were run on the Attune NxT Cytometer.
(§3) Because preincubation of immune cells with Compound 2 enhanced the targeting and lysing of MM cells, the effect of preincubation of MM cells with Compound 2 on their susceptibility to immune-mediated killing was also explored (FIG. 16A, FIG. 16B, FIG. 16C, and FIG. 16D, Table 12). Four MM cell lines and anti-CD3 antibody-activated PBMCs were separately preincubated with Compound 2, lenalidomide, or pomalidomide for 72 h. When anti-CD3 antibody-activated PBMCs and MM lines were both pretreated with Compound 2, lenalidomide, or pomalidomide, followed by co-culture, the effects on the PBMC-induced MM cell lysis were enhanced both in the potency and magnitude of the killing response. […] For the pomalidomide-resistant OPM2-P10 cell line, Compound 2 treatment of the MM cells enhanced the immune-mediated killing by ˜3000-fold (Table 12).

NCI-H929 = assay: as above; type: cell-based, human; settings: Homo sapiens, NCI-H929, NCI-H929, read-out: Immune-mediated Cell Killing IC50
Method: as §2, §3

OPM2-P10 = assay: as above; type: cell-based, human; settings: Homo sapiens, PBMC, read-out: Immune-mediated Cell Killing IC50
Method: as §2, §3

OPM2 = assay: as above; type: cell-based; settings: Homo sapiens, OPM-2, OPM2, read-out: Immune-mediated Cell Killing IC50
Method: as §2, §3

RPMI-8226 = assay: as above; type: cell-based; settings: Homo sapiens, RPMI-8226, RPMI-8226, read-out: Immune-mediated Cell Killing IC50

T1 sequence (P14416 1-414 isoform P14416-2): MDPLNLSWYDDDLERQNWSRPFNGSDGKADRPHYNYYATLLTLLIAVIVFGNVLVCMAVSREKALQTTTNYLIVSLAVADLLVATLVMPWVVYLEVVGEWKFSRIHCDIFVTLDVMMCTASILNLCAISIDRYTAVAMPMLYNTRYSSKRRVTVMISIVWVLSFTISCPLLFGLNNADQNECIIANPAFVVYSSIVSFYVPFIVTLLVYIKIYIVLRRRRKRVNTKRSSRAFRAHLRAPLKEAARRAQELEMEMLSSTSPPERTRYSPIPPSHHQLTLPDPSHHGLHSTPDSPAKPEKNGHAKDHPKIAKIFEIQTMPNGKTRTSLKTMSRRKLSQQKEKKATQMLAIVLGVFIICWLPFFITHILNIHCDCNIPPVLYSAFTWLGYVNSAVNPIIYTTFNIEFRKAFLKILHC

- Dopamine D2S % Inhibition (10 μM) (dopamine D2S receptor): 98.7%
Molecule: O=C1CCC(N2Cc3c(OCc4ccc(CN5CCN(c6ccccc6)CC5)cc4)cccc3C2=O)C(=O)N1 (racemic) [Ex. 5.229]

- Adrenergic α1 (non-selective) % Inhibition (10 μM) [1]: 100.3%
- Dopamine D2S % Inhibition (10 μM) (dopamine D2S receptor): 94.7%
Molecule: O=C1CCC(N2Cc3c(OCc4ccc(CN5CCN(c6ccc(F)cc6)CC5)cc4)cccc3C2=O)C(=O)N1 (racemic) [Ex. 5.273]

- Dopamine D2S % Inhibition (10 μM) (dopamine D2S receptor): 92.4%
Molecule: O=C1CCC(N2C(=O)c3cccc(OCc4ccc(CN5CCN(c6ccc(F)cc6)CC5)cc4)c3C2=O)C(=O)N1 (racemic) [Ex. 5.289]

Molecule: O=C(CCCCCCNC(=O)c1cnc(N(c2ccccc2)c2ccccc2Cl)nc1)NO [ACY241]
- synergistic activity in combination with Compound 2 (cell lines) [2]: synergistic in L363/OPM2-P10

Molecule: CO[C@H]1/C=C/C[C@H](C)[C@@H](C)S(=O)(=O)NC(=O)c2ccc3c(c2)N(C[C@@H]2CC[C@H]21)C[C@@]1(CCCc2cc(Cl)ccc21)CO3 [AMG176]
- synergistic activity in combination with Compound 2 (cell lines) [2]: synergistic activity in three cell lines (KMS11, KMS12-PE, L363)

Molecule: Cn1cc(-c2cc(S(C)(=O)=O)ccc2OCC2CC2)c2ccccc2c1=O [Compound D, 4-[2-(cyclopropylmethoxy)-5-(methanesulfonyl)phenyl]-2-methylisoquinolin-1(2H)-one]
- synergistic activity in combination with Compound 2 (cell lines) [2]: synergistic activity in the MM cells

Molecule: COc1ccc(-c2c(-c3ccc(C#N)c(F)c3)nc(N3CCC(N)CC3)n(C)c2=O)cc1F [Compound E, 4-[2-(4-amino-piperidin-1-yl)-5-(3-fluoro-4-methoxy-phenyl)-1-methyl-6-oxo-1,6-dihydropyrimidin-4-yl]-2-fluoro-benzonitrile]
- synergistic activity in combination with Compound 2 (cell lines) [2]: synergistic in L363 and KMS12-PE cells

Molecule: Nc1cccc2c1CN(C1CCC(=O)NC1=O)C2=O (stereo not drawn) [Lenalidomide, lenalidomide]
- IC50 (K562 cells): 20 nM
- IC50 (H929-1051; Co-culture with PBMCs): 878 nM
- IC50 (H929-1051; Single culture): > 10000 nM
- IC50 (NCI-H929; Co-culture with PBMCs): 317 nM
- IC50 (NCI-H929; Single culture): > 10000 nM
- IC50 (OPM2-P10; Co-culture with PBMCs): 8090 nM
- IC50 (OPM2-P10; Single culture): > 10000 nM
- IC50 (OPM2; Co-culture with PBMCs): 1720 nM
- IC50 (OPM2; Single culture): > 10000 nM
- IC50 (RPMI-8226; Co-culture with PBMCs): 124 nM
- IC50 (RPMI-8226; Single culture): > 10000 nM

Molecule: Cc1sc2c(c1C)C(c1ccc(Cl)cc1)=N[C@@H](CC(=O)Nc1ccc(O)cc1)c1nnc(C)n1-2 [birabresib]
- synergistic activity in combination with Compound 2 (cell lines) [2]: synergistic activity in the MM cells

Molecule: MIK665
- synergistic activity in combination with Compound 2 (cell lines) [2]: did not show significant synergy in the 6 MM cell lines tested
